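Tested at 5 concentrations; 48 h exposure; 96-well plates; endpoints linearly interpolated, else capped at highest concentration. The concentration for 50% growth inhibition is given as GI50.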 The source made the active and inactive calls. Rule as the data show it: active = GI50 up to about 1.1 µM and inactive = higher.
Tests used:
Assay in all cases: NCI-60 cell line screen, 48 h
A549 = test system: A549
ACHN = test system: ACHN
BT-549 = test system: BT-549
EKVX = test system: EKVX
HCT-116 = test system: HCT-116
HCT-15 = test system: HCT-15
HT-29 = test system: HT-29
Hs-578T = test system: Hs-578T
M14 = test system: M14
MDA-MB-231 = test system: MDA-MB-231
MDA-MB-435 = test system: MDA-MB-435
NCI-H522 = test system: NCI-H522
OVCAR-3 = test system: OVCAR-3
OVCAR-8 = test system: OVCAR-8
RPMI-8226 = test system: RPMI-8226
SK-MEL-2 = test system: SK-MEL-2
SK-MEL-5 = test system: SK-MEL-5
SN12C = test system: SN12C
SW-620 = test system: SW-620
UO-31 = test system: UO-31

Structure (SMILES) | GI50 (A549) | GI50 (ACHN) | GI50 (BT-549) | GI50 (EKVX) | GI50 (HCT-116) | GI50 (HCT-15) [µM] | GI50 (HT-29) | GI50 (Hs-578T) | GI50 (M14) | GI50 (MDA-MB-231) | GI50 (MDA-MB-435) | GI50 (NCI-H522) | GI50 (OVCAR-3) | GI50 (OVCAR-8) | GI50 (RPMI-8226) | GI50 (SK-MEL-2) | GI50 (SK-MEL-5) | GI50 (SN12C) | GI50 (SW-620) | GI50 (UO-31)
COc1ccc2cc(CNCCCCCCNC(=O)Nc3cccc4ccccc34)ccc2c1 | > 100 µM (inactive) | > 100 µM (inactive) | > 100 µM (inactive) | > 100 µM (inactive) | > 100 µM (inactive) | > 100 | > 100 µM (inactive) | > 100 µM (inactive) | > 100 µM (inactive) | > 100 µM (inactive) | > 100 µM (inactive) | > 100 µM (inactive) | > 100 µM (inactive) | > 100 µM (inactive) | > 100 µM (inactive) | > 100 µM (inactive) | > 100 µM (inactive) | > 100 µM (inactive) | > 100 µM (inactive) | –
Cc1ccc2c(c1)C(=O)c1ccc(C)nc1C2=O | 31.8 µM (inactive) | 35.7 µM (inactive) | 25.6 µM (inactive) | 40.7 µM (inactive) | 19.1 µM (inactive) | 16.9 | 31.8 µM (inactive) | > 100 µM (inactive) | 31.8 µM (inactive) | 3.98 µM (inactive) | 19.3 µM (inactive) | 25.9 µM (inactive) | 6.19 µM (inactive) | 46.9 µM (inactive) | 43.3 µM (inactive) | 69.2 µM (inactive) | 13.2 µM (inactive) | 20.4 µM (inactive) | 27.9 µM (inactive) | 40.9 µM (inactive)
CCCCCCCCCCCCOP(=O)(O)OP(=O)(O)OCC1OC(n2ccc(N)nc2=O)CC1O (stereo not given) | > 100 µM (inactive) | > 100 µM (inactive) | > 100 µM (inactive) | > 100 µM (inactive) | > 100 µM (inactive) | > 100 | > 100 µM (inactive) | > 100 µM (inactive) | > 100 µM (inactive) | > 100 µM (inactive) | > 100 µM (inactive) | > 100 µM (inactive) | > 100 µM (inactive) | > 100 µM (inactive) | > 100 µM (inactive) | > 100 µM (inactive) | > 100 µM (inactive) | > 100 µM (inactive) | > 100 µM (inactive) | > 100 µM (inactive)
COc1c(C(=O)O)cccc1-c1cccc(C(=O)NCCN(CCNC(=O)c2cccc(-c3cccc(C(=O)O)c3OC)c2OC)CCNC(=O)c2cccc(-c3cccc(C(=O)O)c3OC)c2OC)c1OC | 49.5 µM (inactive) | 50.5 µM (inactive) | 52.1 µM (inactive) | 64.6 µM (inactive) | 33.4 µM (inactive) | 65.2 | 20.7 µM (inactive) | 28 µM (inactive) | – | 37.6 µM (inactive) | 11.4 µM (inactive) | 33.3 µM (inactive) | 18.5 µM (inactive) | 63 µM (inactive) | 23.2 µM (inactive) | 31.8 µM (inactive) | 4.84 µM (inactive) | 29.4 µM (inactive) | 29.6 µM (inactive) | > 100 µM (inactive)
COc1ccc2c(c1OC(C)=O)C1=CC(=O)CCC13CCNC3C2 (stereo not given) | > 100 µM (inactive) | > 100 µM (inactive) | > 100 µM (inactive) | > 100 µM (inactive) | > 100 µM (inactive) | > 100 | > 100 µM (inactive) | > 100 µM (inactive) | > 100 µM (inactive) | > 100 µM (inactive) | > 100 µM (inactive) | > 100 µM (inactive) | > 100 µM (inactive) | > 100 µM (inactive) | > 100 µM (inactive) | > 100 µM (inactive) | > 100 µM (inactive) | > 100 µM (inactive) | > 100 µM (inactive) | > 100 µM (inactive)
Cc1ccnc2c1c(=O)c1ccccc1n2C | – | 27.7 µM (inactive) | 27.1 µM (inactive) | 30.8 µM (inactive) | 39.4 µM (inactive) | 38 | 29.5 µM (inactive) | 25.3 µM (inactive) | 39 µM (inactive) | 31.8 µM (inactive) | 42.9 µM (inactive) | 19.1 µM (inactive) | 63.2 µM (inactive) | 34.4 µM (inactive) | 36.7 µM (inactive) | 52.1 µM (inactive) | 18.7 µM (inactive) | 30.5 µM (inactive) | 35.5 µM (inactive) | 12.9 µM (inactive)
C[N+](C)(C)C(Cc1c[nH]c(=S)[nH]1)C(=O)O (stereo not given) | > 100 µM (inactive) | > 100 µM (inactive) | > 100 µM (inactive) | > 100 µM (inactive) | > 100 µM (inactive) | > 100 | > 100 µM (inactive) | > 100 µM (inactive) | > 100 µM (inactive) | > 100 µM (inactive) | > 100 µM (inactive) | > 100 µM (inactive) | > 100 µM (inactive) | > 100 µM (inactive) | > 100 µM (inactive) | > 100 µM (inactive) | > 100 µM (inactive) | > 100 µM (inactive) | > 100 µM (inactive) | > 100 µM (inactive)
COC(=O)C1=C(N)C2=C(N)Oc3ccccc3C2CC1=C(C#N)C#N (stereo not given) | 32.6 µM (inactive) | 24.5 µM (inactive) | 23.4 µM (inactive) | 29.1 µM (inactive) | 23.5 µM (inactive) | 17.2 | 26.2 µM (inactive) | 27.9 µM (inactive) | 19.4 µM (inactive) | 17.5 µM (inactive) | 34.8 µM (inactive) | 15.8 µM (inactive) | 25.6 µM (inactive) | 23.9 µM (inactive) | 19.1 µM (inactive) | 25.9 µM (inactive) | 25.8 µM (inactive) | 29 µM (inactive) | 33.7 µM (inactive) | 19.2 µM (inactive)
O=S(=O)(O)C(c1ccccc1)C(O)c1ccccc1 (stereo not given) | > 100 µM (inactive) | > 100 µM (inactive) | > 100 µM (inactive) | > 100 µM (inactive) | > 100 µM (inactive) | > 100 | > 100 µM (inactive) | > 100 µM (inactive) | > 100 µM (inactive) | > 100 µM (inactive) | > 100 µM (inactive) | > 100 µM (inactive) | > 100 µM (inactive) | > 100 µM (inactive) | > 100 µM (inactive) | > 100 µM (inactive) | > 100 µM (inactive) | > 100 µM (inactive) | > 100 µM (inactive) | > 100 µM (inactive)
COC1=C(OC)C23CCc4ccc(OC)c(O)c4C2(CCN3)CC1=O (stereo not given) | > 100 µM (inactive) | > 100 µM (inactive) | > 100 µM (inactive) | > 100 µM (inactive) | > 100 µM (inactive) | > 100 | > 100 µM (inactive) | > 100 µM (inactive) | > 100 µM (inactive) | > 100 µM (inactive) | > 100 µM (inactive) | > 100 µM (inactive) | > 100 µM (inactive) | > 100 µM (inactive) | > 100 µM (inactive) | > 100 µM (inactive) | > 100 µM (inactive) | > 100 µM (inactive) | > 100 µM (inactive) | –
COC(=O)C1C/C(=C/N(C)C)C(=S)N1 (stereo not given) | > 100 µM (inactive) | > 100 µM (inactive) | > 100 µM (inactive) | > 100 µM (inactive) | > 100 µM (inactive) | > 100 | > 100 µM (inactive) | > 100 µM (inactive) | > 100 µM (inactive) | > 100 µM (inactive) | > 100 µM (inactive) | > 100 µM (inactive) | > 100 µM (inactive) | > 100 µM (inactive) | > 100 µM (inactive) | > 100 µM (inactive) | > 100 µM (inactive) | – | > 100 µM (inactive) | > 100 µM (inactive)
COc1cc(O)c2c(c1)C(=O)c1cc3c(c(O)c1C2=O)C(OC1OC(C)C(OC)C(O)C1OC)C(OC)C(C)(O)C3=O (stereo not given) | 3.55 µM (inactive) | 2.14 µM (inactive) | 14.5 µM (inactive) | 3.37 µM (inactive) | 2.81 µM (inactive) | 3.15 | 3.37 µM (inactive) | 8.47 µM (inactive) | 3.02 µM (inactive) | 4.44 µM (inactive) | 3.8 µM (inactive) | 1.68 µM (inactive) | 2.84 µM (inactive) | 2.36 µM (inactive) | 1.29 µM (inactive) | 8.11 µM (inactive) | 1.68 µM (inactive) | – | 3.6 µM (inactive) | –
CC(=O)O[C@@H](c1nccn1Cc1ccccc1)[C@H]1OC(C)(C)O[C@@H]1[C@H]1COC(C)(C)O1 | > 100 µM (inactive) | > 100 µM (inactive) | > 100 µM (inactive) | > 100 µM (inactive) | > 100 µM (inactive) | > 100 | > 100 µM (inactive) | > 100 µM (inactive) | – | > 100 µM (inactive) | > 100 µM (inactive) | > 100 µM (inactive) | > 100 µM (inactive) | > 100 µM (inactive) | > 100 µM (inactive) | > 100 µM (inactive) | > 100 µM (inactive) | > 100 µM (inactive) | > 100 µM (inactive) | > 100 µM (inactive)
Cc1c(F)c(NC(=O)CN(C)C)c2c(=O)cc(-c3ccc(NC(=O)CN(C)C)c(F)c3)oc2c1F | 18.6 µM (inactive) | 15.4 µM (inactive) | 17.9 µM (inactive) | – | 12.9 µM (inactive) | 14.5 | 14.6 µM (inactive) | 26.9 µM (inactive) | 16.3 µM (inactive) | 13.6 µM (inactive) | 12.6 µM (inactive) | 17.5 µM (inactive) | – | 17.8 µM (inactive) | 16.8 µM (inactive) | 19.2 µM (inactive) | 15 µM (inactive) | 17.8 µM (inactive) | 16.2 µM (inactive) | 13.6 µM (inactive)

— ChEMBL document CHEMBL1201862, “PubChem BioAssay data set” (2004)
